The supplement of paper PMC12076712

Tests used:
Assay in all cases: pIC50, kinobeads binding competition
[1] = target: UniProt P48729
Outline: (§1)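 pIC50 was obtained by fitting fold changes against vehicle to logistic dose-response curves with the R drc package, using biological duplicates. Kinobeads-bound proteins were digested and measured by TMT10 LC-MS/MS. Before this, either living Jurkat cells received nine compound concentrations (top 30 μM, 1:4 steps) for 60 min at 37 °C prior to lysis, or Jurkat lysate or a 1:1:1:1 HEK293/K-562/HepG2/placenta lysate mix received nine concentrations (top 30 μM, 1:5 steps) for 60 min at 4 °C.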

[2] = target: LIMK1 (UniProt P53667)
Outline: as §1

[3] = target: MAST3 (UniProt O60307)
MAST3, sequence (O60307 whole entry): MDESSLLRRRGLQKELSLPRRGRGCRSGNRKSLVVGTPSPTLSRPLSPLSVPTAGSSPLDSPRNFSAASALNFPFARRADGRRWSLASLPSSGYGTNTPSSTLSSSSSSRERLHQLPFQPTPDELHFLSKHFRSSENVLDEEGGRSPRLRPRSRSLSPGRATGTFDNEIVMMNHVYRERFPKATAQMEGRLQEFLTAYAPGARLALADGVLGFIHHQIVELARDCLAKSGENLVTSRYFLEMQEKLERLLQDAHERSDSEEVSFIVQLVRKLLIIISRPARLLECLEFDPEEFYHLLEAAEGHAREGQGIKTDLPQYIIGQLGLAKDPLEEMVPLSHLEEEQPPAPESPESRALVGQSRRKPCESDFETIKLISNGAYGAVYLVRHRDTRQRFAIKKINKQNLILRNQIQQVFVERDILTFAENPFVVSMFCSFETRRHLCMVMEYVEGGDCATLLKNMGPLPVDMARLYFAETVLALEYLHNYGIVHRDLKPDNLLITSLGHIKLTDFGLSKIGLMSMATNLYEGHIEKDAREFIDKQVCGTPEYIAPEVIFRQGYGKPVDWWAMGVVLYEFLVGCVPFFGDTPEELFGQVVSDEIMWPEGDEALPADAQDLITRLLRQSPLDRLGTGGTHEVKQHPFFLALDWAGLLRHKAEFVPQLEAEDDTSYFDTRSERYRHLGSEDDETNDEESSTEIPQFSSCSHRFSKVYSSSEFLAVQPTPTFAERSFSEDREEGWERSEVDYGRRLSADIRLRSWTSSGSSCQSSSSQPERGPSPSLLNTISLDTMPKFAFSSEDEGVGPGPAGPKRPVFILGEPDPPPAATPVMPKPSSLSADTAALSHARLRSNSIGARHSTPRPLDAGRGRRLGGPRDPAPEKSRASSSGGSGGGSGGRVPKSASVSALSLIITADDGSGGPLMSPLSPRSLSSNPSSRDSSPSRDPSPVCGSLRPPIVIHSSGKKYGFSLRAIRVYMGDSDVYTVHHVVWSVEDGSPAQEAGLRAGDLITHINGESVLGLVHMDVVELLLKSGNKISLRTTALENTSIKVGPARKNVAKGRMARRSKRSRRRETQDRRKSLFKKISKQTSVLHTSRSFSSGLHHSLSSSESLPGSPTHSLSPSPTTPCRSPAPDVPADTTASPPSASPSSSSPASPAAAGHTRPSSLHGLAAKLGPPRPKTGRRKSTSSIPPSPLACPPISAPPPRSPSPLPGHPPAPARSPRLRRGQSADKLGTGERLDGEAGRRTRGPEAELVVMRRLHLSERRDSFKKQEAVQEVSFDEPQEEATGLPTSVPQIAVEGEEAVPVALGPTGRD
Outline: as §1

[4] = target: PDIK1L (UniProt Q8N165)
PDIK1L, sequence (Q8N165 whole entry): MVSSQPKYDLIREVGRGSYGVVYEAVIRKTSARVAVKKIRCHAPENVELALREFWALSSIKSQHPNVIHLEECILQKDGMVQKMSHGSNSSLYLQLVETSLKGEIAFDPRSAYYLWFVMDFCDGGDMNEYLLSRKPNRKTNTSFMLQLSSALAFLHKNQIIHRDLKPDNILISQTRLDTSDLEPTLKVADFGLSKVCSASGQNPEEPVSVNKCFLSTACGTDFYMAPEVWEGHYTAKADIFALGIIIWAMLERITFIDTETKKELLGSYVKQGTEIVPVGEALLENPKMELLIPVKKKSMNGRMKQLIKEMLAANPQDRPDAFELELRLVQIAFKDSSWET
Outline: as §1

[5] = target: T1, UniProt Q13043
T1 sequence (whole entry): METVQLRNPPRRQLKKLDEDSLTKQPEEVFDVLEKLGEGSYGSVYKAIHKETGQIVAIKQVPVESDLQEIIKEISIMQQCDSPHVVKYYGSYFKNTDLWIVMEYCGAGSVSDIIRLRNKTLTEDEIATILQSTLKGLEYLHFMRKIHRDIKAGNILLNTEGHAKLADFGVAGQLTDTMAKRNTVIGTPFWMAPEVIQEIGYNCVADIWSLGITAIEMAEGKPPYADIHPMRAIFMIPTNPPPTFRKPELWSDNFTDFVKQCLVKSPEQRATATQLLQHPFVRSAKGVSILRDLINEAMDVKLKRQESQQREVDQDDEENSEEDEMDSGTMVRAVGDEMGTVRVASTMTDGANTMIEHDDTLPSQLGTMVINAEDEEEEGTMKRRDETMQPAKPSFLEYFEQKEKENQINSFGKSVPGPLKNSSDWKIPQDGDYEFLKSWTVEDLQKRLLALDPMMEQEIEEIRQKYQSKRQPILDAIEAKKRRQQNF
Outline: as §1

[6] = target: CAMK2B (UniProt Q13554); conditions: cell material: Lysate mix
Outline: as §1

[7] = target: Jak2 (UniProt O60674)
Jak2, sequence (O60674 whole entry): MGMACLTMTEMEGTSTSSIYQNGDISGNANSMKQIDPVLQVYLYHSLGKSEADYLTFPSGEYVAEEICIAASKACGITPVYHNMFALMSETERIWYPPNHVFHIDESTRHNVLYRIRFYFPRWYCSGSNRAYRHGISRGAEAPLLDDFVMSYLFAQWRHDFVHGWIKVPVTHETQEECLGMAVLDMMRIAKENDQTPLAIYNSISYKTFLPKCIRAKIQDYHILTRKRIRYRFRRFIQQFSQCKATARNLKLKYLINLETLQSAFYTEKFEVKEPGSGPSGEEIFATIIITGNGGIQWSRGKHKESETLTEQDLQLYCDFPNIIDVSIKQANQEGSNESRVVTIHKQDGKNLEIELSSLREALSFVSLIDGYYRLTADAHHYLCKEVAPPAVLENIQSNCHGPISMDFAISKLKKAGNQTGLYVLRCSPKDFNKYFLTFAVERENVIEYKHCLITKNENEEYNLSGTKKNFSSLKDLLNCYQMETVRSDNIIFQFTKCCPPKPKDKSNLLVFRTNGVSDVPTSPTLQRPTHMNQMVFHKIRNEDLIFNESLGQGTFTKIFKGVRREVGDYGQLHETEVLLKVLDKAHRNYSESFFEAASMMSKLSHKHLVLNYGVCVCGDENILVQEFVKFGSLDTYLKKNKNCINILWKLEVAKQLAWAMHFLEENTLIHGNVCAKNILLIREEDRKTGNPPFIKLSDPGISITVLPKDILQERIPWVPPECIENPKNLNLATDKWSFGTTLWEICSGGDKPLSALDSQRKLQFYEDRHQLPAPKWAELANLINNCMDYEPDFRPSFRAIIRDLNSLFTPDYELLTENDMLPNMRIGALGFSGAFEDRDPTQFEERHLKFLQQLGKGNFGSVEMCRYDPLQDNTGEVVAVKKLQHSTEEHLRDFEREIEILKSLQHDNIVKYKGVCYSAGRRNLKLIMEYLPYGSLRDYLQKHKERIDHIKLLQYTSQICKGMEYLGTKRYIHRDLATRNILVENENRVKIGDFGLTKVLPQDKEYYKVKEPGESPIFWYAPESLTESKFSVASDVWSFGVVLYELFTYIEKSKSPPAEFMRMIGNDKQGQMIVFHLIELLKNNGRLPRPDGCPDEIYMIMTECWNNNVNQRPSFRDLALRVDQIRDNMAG
Outline: as §1

[8] = target: UniProt Q13164
UniProt Q13164, sequence (Q13164 whole entry, looked up): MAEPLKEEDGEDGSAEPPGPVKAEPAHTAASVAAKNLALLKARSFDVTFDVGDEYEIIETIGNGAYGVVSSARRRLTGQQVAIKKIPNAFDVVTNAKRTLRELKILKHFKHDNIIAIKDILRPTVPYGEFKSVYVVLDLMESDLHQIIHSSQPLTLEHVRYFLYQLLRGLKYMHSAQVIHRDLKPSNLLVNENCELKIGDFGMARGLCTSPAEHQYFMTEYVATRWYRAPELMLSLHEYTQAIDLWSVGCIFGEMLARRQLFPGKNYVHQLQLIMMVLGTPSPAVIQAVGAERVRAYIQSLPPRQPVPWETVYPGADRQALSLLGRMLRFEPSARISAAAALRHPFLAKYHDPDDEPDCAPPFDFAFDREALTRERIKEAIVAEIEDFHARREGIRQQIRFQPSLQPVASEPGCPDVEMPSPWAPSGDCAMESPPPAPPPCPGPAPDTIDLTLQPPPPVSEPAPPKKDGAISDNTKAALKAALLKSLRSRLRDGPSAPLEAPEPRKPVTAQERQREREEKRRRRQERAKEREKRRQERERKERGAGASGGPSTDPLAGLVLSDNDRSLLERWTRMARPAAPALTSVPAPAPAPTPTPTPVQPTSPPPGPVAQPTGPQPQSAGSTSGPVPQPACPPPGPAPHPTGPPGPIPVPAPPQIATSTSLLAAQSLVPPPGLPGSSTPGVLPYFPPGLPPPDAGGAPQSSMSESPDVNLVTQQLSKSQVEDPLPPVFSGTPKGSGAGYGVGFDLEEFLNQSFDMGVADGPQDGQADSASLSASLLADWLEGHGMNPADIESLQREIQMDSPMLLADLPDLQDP
Outline: as §1

[9] = target: UniProt Q15418
UniProt Q15418, sequence (Q15418 whole entry): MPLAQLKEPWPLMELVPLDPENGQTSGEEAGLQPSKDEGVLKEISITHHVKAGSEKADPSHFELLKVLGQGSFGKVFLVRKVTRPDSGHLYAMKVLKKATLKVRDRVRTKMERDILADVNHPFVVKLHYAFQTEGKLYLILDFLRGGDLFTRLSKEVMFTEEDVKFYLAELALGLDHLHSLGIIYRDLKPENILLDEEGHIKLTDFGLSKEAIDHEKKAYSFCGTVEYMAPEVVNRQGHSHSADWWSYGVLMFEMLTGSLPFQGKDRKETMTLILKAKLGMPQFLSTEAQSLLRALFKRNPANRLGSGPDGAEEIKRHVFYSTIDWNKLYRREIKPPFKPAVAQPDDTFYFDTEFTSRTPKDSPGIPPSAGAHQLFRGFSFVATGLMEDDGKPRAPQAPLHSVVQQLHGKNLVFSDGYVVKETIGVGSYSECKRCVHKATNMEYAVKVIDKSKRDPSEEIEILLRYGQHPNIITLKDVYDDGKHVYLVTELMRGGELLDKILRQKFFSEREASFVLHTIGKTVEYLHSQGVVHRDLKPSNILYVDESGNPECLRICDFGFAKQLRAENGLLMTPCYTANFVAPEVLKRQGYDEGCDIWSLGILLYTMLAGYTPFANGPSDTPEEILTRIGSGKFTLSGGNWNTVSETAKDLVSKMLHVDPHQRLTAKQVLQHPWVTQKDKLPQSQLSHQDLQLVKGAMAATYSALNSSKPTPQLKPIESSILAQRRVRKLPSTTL
Outline: as §1

[10] = target: BMPR1A (UniProt P36894)
BMPR1A, sequence (P36894 whole entry): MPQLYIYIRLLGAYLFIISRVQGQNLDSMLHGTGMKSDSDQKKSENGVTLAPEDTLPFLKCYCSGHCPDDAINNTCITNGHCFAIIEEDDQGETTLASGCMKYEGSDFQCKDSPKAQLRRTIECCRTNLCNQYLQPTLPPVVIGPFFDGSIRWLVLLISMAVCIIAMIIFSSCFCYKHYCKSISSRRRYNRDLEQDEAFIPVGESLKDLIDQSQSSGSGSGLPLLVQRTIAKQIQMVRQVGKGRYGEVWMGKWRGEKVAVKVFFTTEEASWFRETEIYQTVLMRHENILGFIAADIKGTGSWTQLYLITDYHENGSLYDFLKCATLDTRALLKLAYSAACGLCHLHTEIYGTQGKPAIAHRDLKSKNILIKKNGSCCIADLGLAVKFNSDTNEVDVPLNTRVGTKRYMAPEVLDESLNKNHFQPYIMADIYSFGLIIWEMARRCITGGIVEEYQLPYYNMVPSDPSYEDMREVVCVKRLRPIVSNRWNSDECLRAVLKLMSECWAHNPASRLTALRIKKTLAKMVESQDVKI
Outline: as §1

[11] = target: UniProt P27361
Outline: as §1

[12] = target: UniProt Q16659
Outline: as §1

[13] = target: JAK1 (UniProt P23458)
Outline: as §1

[14] = target: T2, GAK (UniProt O14976)
T2 sequence (whole entry): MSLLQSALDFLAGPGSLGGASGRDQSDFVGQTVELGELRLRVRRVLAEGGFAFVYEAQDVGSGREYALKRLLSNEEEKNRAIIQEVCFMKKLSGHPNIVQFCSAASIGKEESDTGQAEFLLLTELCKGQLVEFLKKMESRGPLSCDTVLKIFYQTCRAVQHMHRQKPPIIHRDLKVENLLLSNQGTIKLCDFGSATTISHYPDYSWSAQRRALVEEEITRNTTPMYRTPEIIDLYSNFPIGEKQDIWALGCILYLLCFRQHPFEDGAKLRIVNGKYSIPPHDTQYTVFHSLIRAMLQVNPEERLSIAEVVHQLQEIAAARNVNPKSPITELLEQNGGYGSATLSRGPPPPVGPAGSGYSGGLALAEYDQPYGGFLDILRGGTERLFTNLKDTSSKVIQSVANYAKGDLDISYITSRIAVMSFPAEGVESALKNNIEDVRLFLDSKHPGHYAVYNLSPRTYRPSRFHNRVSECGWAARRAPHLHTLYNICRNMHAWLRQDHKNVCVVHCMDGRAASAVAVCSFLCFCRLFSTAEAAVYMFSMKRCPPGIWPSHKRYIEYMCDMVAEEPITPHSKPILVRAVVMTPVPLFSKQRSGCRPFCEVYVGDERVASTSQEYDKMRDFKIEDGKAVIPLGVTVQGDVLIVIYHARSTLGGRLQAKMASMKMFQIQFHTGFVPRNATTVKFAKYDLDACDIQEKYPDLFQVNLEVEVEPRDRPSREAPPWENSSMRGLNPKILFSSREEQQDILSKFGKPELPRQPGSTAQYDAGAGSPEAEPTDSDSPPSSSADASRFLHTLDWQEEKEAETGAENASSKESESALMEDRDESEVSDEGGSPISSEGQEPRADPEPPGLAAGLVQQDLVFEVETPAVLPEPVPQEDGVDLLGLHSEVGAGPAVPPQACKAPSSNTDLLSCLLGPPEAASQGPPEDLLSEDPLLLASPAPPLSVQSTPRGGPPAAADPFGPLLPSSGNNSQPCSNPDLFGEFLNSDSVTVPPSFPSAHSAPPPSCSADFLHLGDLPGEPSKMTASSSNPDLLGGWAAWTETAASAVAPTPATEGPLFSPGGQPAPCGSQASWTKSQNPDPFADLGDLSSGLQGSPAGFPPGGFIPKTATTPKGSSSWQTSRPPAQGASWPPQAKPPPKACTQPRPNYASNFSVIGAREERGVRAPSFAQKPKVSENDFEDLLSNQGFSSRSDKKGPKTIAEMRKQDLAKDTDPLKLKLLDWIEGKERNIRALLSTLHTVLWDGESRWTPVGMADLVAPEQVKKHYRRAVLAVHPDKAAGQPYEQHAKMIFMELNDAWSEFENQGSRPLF
Outline: as §1

[15] = target: UniProt P27448
Outline: as §1

[16] = target: CDK5 (UniProt Q00535)
Outline: as §1

[17] = target: UniProt Q9Y2I7
Outline: as §1

## C#CCNC(=O)c1cc(Nc2cc(C)[nH]n2)nc(N2CCN(Cc3ccc(S(=O)(=O)F)cc3)CC2)n1
[1]; cell material: Lysate mix
  pIC50: < 4.52
[2]; cell material: Lysate mix
  pIC50: 5.62
[3]; cell material: Lysate mix
  pIC50: 6.16
[4]; cell material: Lysate mix
  pIC50: 5.14
[5]; cell material: Lysate mix
  pIC50: 5.98
[6]
  pIC50: < 4.52
[7]; cell material: Lysate mix
  pIC50: 4.93
[8]; cell material: Lysate mix
  pIC50: < 4.52
[9]; cell material: Lysate mix
  pIC50: 5.27
[10]; cell material: Lysate mix
  pIC50: < 4.52
[11]; cell material: Lysate mix
  pIC50: < 4.52
[12]; cell material: Lysate mix
  pIC50: < 4.52
[13]; cell material: Lysate mix
  pIC50: < 4.52
[14]; cell material: Lysate mix
  pIC50: < 4.52
[15]; cell material: Lysate mix
  pIC50: < 4.52
[16]; cell material: Lysate mix
  pIC50: 6.02
[17]; cell material: Lysate mix
  pIC50: < 4.52

## O=C(NCCNC(=O)c1cc(Nc2cc(C3CC3)[nH]n2)nc(N2CCN(Cc3ccc(S(=O)(=O)F)cc3)CC2)n1)OC1CC/C=C/CCC1 (centres undefined)
[1]; cell material: Jurkat lysate
  pIC50: < 4.52
[1]; cell material: Lysate mix
  pIC50: < 4.52
[2]; cell material: Jurkat cells
  pIC50: 6.66
[3]; cell material: Jurkat cells
  pIC50: 6.5
[3]; cell material: Jurkat lysate
  pIC50: 5.06
[3]; cell material: Lysate mix
  pIC50: 4.9
[4]; cell material: Jurkat cells
  pIC50: 5.43
[4]; cell material: Jurkat lysate
  pIC50: < 4.52
[4]; cell material: Lysate mix
  pIC50: < 4.52
[5]; cell material: Jurkat cells
  pIC50: 5.98
[5]; cell material: Jurkat lysate
  pIC50: 4.72
[5]; cell material: Lysate mix
  pIC50: 4.99
[6]
  pIC50: < 4.52
[7]; cell material: Jurkat lysate
  pIC50: < 4.52
[7]; cell material: Lysate mix
  pIC50: < 4.52
[8]; cell material: Jurkat cells
  pIC50: 4.92
[8]; cell material: Jurkat lysate
  pIC50: < 4.52
[8]; cell material: Lysate mix
  pIC50: < 4.52
[9]; cell material: Jurkat cells
  pIC50: 5.78
[9]; cell material: Jurkat lysate
  pIC50: < 4.52
[10]; cell material: Jurkat cells
  pIC50: < 4.52
[10]; cell material: Jurkat lysate
  pIC50: < 4.52
[10]; cell material: Lysate mix
  pIC50: < 4.52
[11]; cell material: Jurkat lysate
  pIC50: < 4.52
[11]; cell material: Lysate mix
  pIC50: < 4.52
[12]; cell material: Jurkat cells
  pIC50: < 4.52
[12]; cell material: Jurkat lysate
  pIC50: < 4.52
[12]; cell material: Lysate mix
  pIC50: < 4.52
[13]; cell material: Jurkat cells
  pIC50: < 4.52
[13]; cell material: Jurkat lysate
  pIC50: < 4.52
[13]; cell material: Lysate mix
  pIC50: < 4.52
[14]; cell material: Jurkat cells
  pIC50: < 4.52
[14]; cell material: Jurkat lysate
  pIC50: < 4.52
[14]; cell material: Lysate mix
  pIC50: < 4.52
[15]; cell material: Jurkat lysate
  pIC50: < 4.52
[15]; cell material: Lysate mix
  pIC50: < 4.52
[16]; cell material: Jurkat cells
  pIC50: 6.34
[16]; cell material: Jurkat lysate
  pIC50: 5.1
[16]; cell material: Lysate mix
  pIC50: 5.12
[17]; cell material: Jurkat cells
  pIC50: < 4.52
[17]; cell material: Jurkat lysate
  pIC50: < 4.52
[17]; cell material: Lysate mix
  pIC50: < 4.52
